Our source for the IC50 values is US9540392B2, “Thienopyrimidines” (BAYER PHARMA AKTIENGESELLSCHAFT, priority 2012, dated 2017).

In one experiment the target is T1, human full-length MKNK1 (Homo sapiens, UniProt Q9BUB5, T385D).
T1 construct: GST (N); purchased Carna Biosciences 02-145; host or cells: insect cells (baculovirus expression system)
T1 sequence (Q9BUB5 1-424 isoform Q9BUB5-2 T344D): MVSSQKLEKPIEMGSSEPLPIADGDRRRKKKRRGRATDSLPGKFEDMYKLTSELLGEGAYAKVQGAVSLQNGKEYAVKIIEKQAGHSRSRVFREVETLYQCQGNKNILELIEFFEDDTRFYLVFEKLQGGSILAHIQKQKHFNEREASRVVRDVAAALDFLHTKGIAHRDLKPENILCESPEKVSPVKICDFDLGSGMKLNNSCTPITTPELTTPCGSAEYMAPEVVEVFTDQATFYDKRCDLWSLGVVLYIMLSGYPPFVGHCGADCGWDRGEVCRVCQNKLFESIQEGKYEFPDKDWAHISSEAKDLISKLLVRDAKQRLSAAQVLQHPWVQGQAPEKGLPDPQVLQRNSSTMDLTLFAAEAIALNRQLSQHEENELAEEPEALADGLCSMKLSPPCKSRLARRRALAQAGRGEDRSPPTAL
The experiment can be described thus: MKNK1 kinase high ATP assay (TR-FRET). It is filed as biochemical.
Details: not given
The essentials:
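Compound was preincubated 15 min at 22° C. with MKNK1 in 50 mM HEPES pH 7.5, 5 mM MgCl2, 1.0 mM DTT, then the reaction ran 30 min at 22° C. with 2 mM ATP and 0.06 μM biotinylated peptide (final).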
In the case of `COc1cc2[nH]ncc2cc1Nc1ncnc2sc3c(c12)CCC(C(=O)N1CCC(=O)CC1)C3` (racemic) [Example 174, (RS)-1-({4-[(6-Methoxy-1H-indazol-5-yl)amino]-5,6,7,8-tetrahydro[1]benzothieno[2,3-d]pyrimidin-7-yl}carbonyl)piperidin-4-one], the half-inhibitory concentration (IC50) (in general, the concentration at which inhibition is half-maximal) was determined as 0.6 nM.

Staying with this experiment, now noted: 2 mM ATP, after preincubation with MKNK1; read-out: MKNK1 IC50 (MKNK1 high ATP).
On to `CCN(CC)CCN(C)C(=O)C1CCc2c(sc3ncnc(Nc4ccc5[nH]ncc5c4)c23)C1` (racemic) [Example 95, (RS)-N-[2-(diethylamino)ethyl]-4-(1H-indazol-5-ylamino)-N-methyl-5,6,7,8-tetrahydro[1]benzothieno[2,3-d]pyrimidine-7-carboxamide], for which the IC50 turned out to be 20.6 nM. On the same count and under the same terms, the figure for `CC(C)Oc1cc2[nH]ncc2cc1Nc1ncnc2sc3c(c12)CCC(C(=O)N(C)CCO)C3` (racemic) [Example 230, (RS)—N-(2-Hydroxyethyl)-4-[(6-isopropoxy-1H-indazol-5-yl)amino]-N-methyl-5,6,7,8-tetrahydro[1]benzothieno[2,3-d]pyrimidine-7-carboxamide] is 0.2 nM.

In the case of `CCOc1cc2[nH]ncc2cc1Nc1ncnc2sc3c(c12)CCC(C(=O)N(C)C)C3` (racemic) [Example 254, (RS)-4-[(6-Ethoxy-1H-indazol-5-yl)amino]-N,N-dimethyl-5,6,7,8-tetrahydro[1]benzothieno[2,3-d]pyrimidine-7-carboxamide], the concentration for half-maximal inhibition (IC50) turned out to be 1.6 nM. In the case of `COc1cc2[nH]ncc2cc1Nc1ncnc2sc3c(c12)CCC(C(=O)N(C)CC(F)F)C3` (racemic) [Example 170, (RS)—N-(2,2-Difluoroethyl)-4-[(6-methoxy-1H-indazol-5-yl)amino]-N-methyl-5,6,7,8-tetrahydro[1]benzothieno[2,3-d]pyrimidine-7-carboxamide], the IC50 stood at 0.8 nM. As to `CCOc1cc2[nH]ncc2cc1Nc1ncnc2sc3c(c12)CCC(C(=O)N1CCCC1)C3` (racemic) [Example 228, (RS)-{4-[(6-Ethoxy-1H-indazol-5-yl)amino]-5,6,7,8-tetrahydro[1]benzothieno[2,3-d]pyrimidin-7-yl}(pyrrolidin-1-yl)methanone], the IC50 is 0.2 nM. On the same count and under the same terms, in the case of `O=C(Nc1ccncc1)C1CCc2c(sc3ncnc(Nc4ccc5[nH]ncc5c4)c23)C1` (racemic) [Example 94, (RS)-4-(1H-indazol-5-ylamino)-N-(pyridin-4-yl)-5,6,7,8-tetrahydro[1]benzothieno[2,3-d]pyrimidine-7-carboxamide] it was 23.4 nM. Same read-out and setting: the figure for `COCCN(C)C(=O)C1CCc2c(sc3ncnc(Nc4ccc5[nH]ncc5c4)c23)C1` (racemic) [Example 130, (RS)-4-(1H-indazol-5-ylamino)-N-(2-methoxyethyl)-N-methyl-5,6,7,8-tetrahydro[1]benzothieno[2,3-d]pyrimidine-7-carboxamide] is 9.5 nM; for `O=C(CN1CCN(C(=O)C2CCc3c(sc4ncnc(Nc5ccc6[nH]ncc6c5)c34)C2)CC1)NC1CC1` (racemic) [Example 166, (RS)-N-cyclopropyl-2-(4-{[4-(1H-indazol-5-ylamino)-5,6,7,8-tetrahydro[1]benzothieno[2,3-d]pyrimidin-7-yl]carbonyl}piperazin-1-yl)acetamide] it is 15.3 nM; for `CNC(=O)C1CCc2c(sc3ncnc(Nc4ccc5[nH]ncc5c4)c23)C1` (stereo not shown) [Example 11, 4-(1H-indazol-5-ylamino)-N-methyl-5,6,7,8-tetrahydro[1]benzothieno[2,3-d]pyrimidine-7-carboxamide] it is 10 nM. On the same count and under the same terms, the figure for `CN(C)C(=O)N1CCN(C(=O)C2CCc3c(sc4ncnc(Nc5ccc6[nH]ncc6c5)c34)C2)CC1` (racemic) [Example 126, (RS)-4-{[4-(1H-indazol-5-ylamino)-5,6,7,8-tetrahydro[1]benzothieno[2,3-d]pyrimidin-7-yl]carbonyl}-N,N-dimethylpiperazine-1-carboxamide] is 14.8 nM. Take `COc1cc2[nH]ncc2cc1Nc1ncnc2sc3c(c12)CCC(C(=O)N1CC(C#N)C1)C3` (racemic) [Example 237, (RS)-1-({4-[(6-Methoxy-1H-indazol-5-yl)amino]-5,6,7,8-tetrahydro[1]benzothieno[2,3-d]pyrimidin-7-yl}carbonyl)azetidine-3-carbonitrile]: the IC50 was determined as 0.3 nM. Same read-out and setting: the figure for `Cc1ccc(NC(=O)C2CCc3c(sc4ncnc(Nc5ccc6[nH]ncc6c5)c34)C2)cc1` (stereo not shown) [Example 17, 4-(1H-indazol-5-ylamino)-N-(4-methylphenyl)-5,6,7,8-tetrahydro[1]benzothieno[2,3-d]pyrimidine-7-carboxamide] is 5 nM.

As for `CCOc1cc2[nH]ncc2cc1Nc1ncnc2sc3c(c12)CCC(C(=O)N1CCC(C#N)C1)C3` (racemic) [Example 265, (3RS)-1-({(7RS)-4-[(6-Ethoxy-1H-indazol-5-yl)amino]-5,6,7,8-tetrahydro[1]benzothieno[2,3-d]pyrimidin-7-yl}carbonyl)pyrrolidine-3-carbonitrile], the IC50 was found to be 1.2 nM.

In the case of `CN(C)CCN1CCN(C(=O)C2CCc3c(sc4ncnc(Nc5ccc6[nH]ncc6c5)c34)C2)CC1` (racemic) [Example 129, (RS)-{4-[2-(dimethylamino)ethyl]piperazin-1-yl}[4-(1H-indazol-5-ylamino)-5,6,7,8-tetrahydro[1]benzothieno[2,3-d]pyrimidin-7-yl]methanone], the half-inhibitory concentration (IC50) amounted to 7.7 nM.

For `COCCN(CCO)C(=O)C1CCc2c(sc3ncnc(Nc4cc5cn[nH]c5cc4OC)c23)C1` (racemic) [Example 207, (RS)—N-(2-Hydroxyethyl)-N-(2-methoxyethyl)-4-[(6-methoxy-1H-indazol-5-yl)amino]-5,6,7,8-tetrahydro[1]benzothieno[2,3-d]pyrimidine-7-carboxamide], the concentration for half-maximal inhibition (IC50) worked out at 0.5 nM.

For the compound `O=C(C1CCc2c(sc3ncnc(Nc4ccc5[nH]ncc5c4)c23)C1)N1CCC(CO)CC1` (racemic) [Example 132, (RS)-[4-(hydroxymethyl)piperidin-1-yl][4-(1H-indazol-5-ylamino)-5,6,7,8-tetrahydro[1]benzothieno[2,3-d]pyrimidin-7-yl]methanone], the IC50 was 10.3 nM.

As for `CN(Cc1cnn(C)c1)C(=O)C1CCc2c(sc3ncnc(Nc4ccc5[nH]ncc5c4)c23)C1` (racemic) [Example 157, (RS)-4-(1H-indazol-5-ylamino)-N-methyl-N-[(1-methyl-1H-pyrazol-4-yl)methyl]-5,6,7,8-tetrahydro[1]benzothieno[2,3-d]pyrimidine-7-carboxamide], the concentration for half-maximal inhibition (IC50) was found to be 38.1 nM. The same measure, in the same setting: the figure for `N#Cc1ccc(NC(=O)C2CCc3c(sc4ncnc(Nc5ccc6[nH]ncc6c5)c34)C2)cc1` (racemic) [Example 77, (RS)—N-(4-Cyanophenyl)-4-(1H-indazol-5-ylamino)-5,6,7,8-tetrahydro[1]benzothieno[2,3-d]pyrimidine-7-carboxamide] is 19.7 nM; for `CN(C)CCCNC(=O)C1CCc2c(sc3ncnc(Nc4ccc5[nH]ncc5c4)c23)C1` (stereo not shown) [Example 40, N-[3-(Dimethylamino)propyl]-4-(1H-indazol-5-ylamino)-5,6,7,8-tetrahydro[1] benzothieno [2,3-d]pyrimidine-7-carboxamide] it is 7 nM.

Regarding `O=C(NCCN1CCNC1=O)C1CCc2c(sc3ncnc(Nc4ccc5[nH]ncc5c4)c23)C1` (racemic) [Example 125, (RS)-4-(1H-indazol-5-ylamino)-N-[2-(2-oxoimidazolidin-1-yl)ethyl]-5,6,7,8-tetrahydro[1]benzothieno[2,3-d]pyrimidine-7-carboxamide], the 50% inhibitory concentration (IC50) is 10.5 nM. With `O=C(C1CCc2c(sc3ncnc(Nc4ccc5[nH]ncc5c4)c23)C1)N1CCS(=O)(=O)CC1` (racemic) [Example 188, (RS)-(1,1-dioxidothiomorpholin-4-yl)[4-(1H-indazol-5-ylamino)-5,6,7,8-tetrahydro[1]benzothieno[2,3-d]pyrimidin-7-yl]methanone], the IC50 was 22.6 nM. On the same count and under the same terms, in the case of `O=C(NCCN1CCCC1)C1CCc2c(sc3ncnc(Nc4ccc5[nH]ncc5c4)c23)C1` (racemic) [Example 98, (RS)-4-(1H-indazol-5-ylamino)-N-[2-(pyrrolidin-1-yl)ethyl]-5,6,7,8-tetrahydro[1]benzothieno[2,3-d]pyrimidine-7-carboxamide] it was 8.1 nM. Still for that read-out and setting: the figure for `COc1cc2[nH]ncc2cc1Nc1ncnc2sc3c(c12)CCC(C(=O)N1CCCC1)C3` (racemic) [Example 183, (RS)-{4-[(6-Methoxy-1H-indazol-5-yl)amino]-5,6,7,8-tetrahydro[1]benzothieno[2,3-d]pyrimidin-7-yl}(pyrrolidin-1-yl)methanone] is 3.2 nM. Still for that read-out and setting: in the case of `CC(C)Oc1cc2[nH]ncc2cc1Nc1ncnc2sc3c(c12)CCC(C(=O)O)C3` (racemic) [Example 69, (RS)-4-{[6-(Propan-2-yloxy)-1H-indazol-5-yl]amino}-5,6,7,8-tetrahydro[1]benzothieno[2,3-d]pyrimidine-7-carboxylic acid] it was 3.9 nM; in that of `O=C(C1CCc2c(sc3ncnc(Nc4ccc5[nH]ncc5c4)c23)C1)N1CC(O)C1` (racemic) [Example 159, (RS)-(3-hydroxyazetidin-1-yl)[4-(1H-indazol-5-ylamino)-5,6,7,8-tetrahydro[1]benzothieno[2,3-d]pyrimidin-7-yl]methanone], 14.4 nM.

Turning to `O=C(C1CCc2c(sc3ncnc(Nc4ccc5[nH]ncc5c4)c23)C1)N1CCC(O)(C(F)(F)F)CC1` (racemic) [Example 194, (RS)-[4-hydroxy-4-(trifluoromethyl)piperidin-1-yl][4-(1H-indazol-5-ylamino)-5,6,7,8-tetrahydro[1]benzothieno[2,3-d]pyrimidin-7-yl]methanone], the 50% inhibitory concentration (IC50) is 12 nM. The same measure, in the same setting: the figure for `CS(=O)(=O)N1CCN(C(=O)C2CCc3c(sc4ncnc(Nc5ccc6[nH]ncc6c5)c34)C2)CC1` (racemic) [Example 156, (RS)-[4-(1H-indazol-5-ylamino)-5,6,7,8-tetrahydro[1]benzothieno[2,3-d]pyrimidin-7-yl][4-(methylsulfonyl)piperazin-1-yl]methanone] is 18.3 nM.
